One test has as its target T1, LAG-3 (Homo sapiens, UniProt P18627).
T1 construct: PBMCs were isolated from fresh whole blood samples from patients; endogenous in cells; host or cells: T cells in PBMCs from patient whole blood
T1 sequence (P18627 23-525): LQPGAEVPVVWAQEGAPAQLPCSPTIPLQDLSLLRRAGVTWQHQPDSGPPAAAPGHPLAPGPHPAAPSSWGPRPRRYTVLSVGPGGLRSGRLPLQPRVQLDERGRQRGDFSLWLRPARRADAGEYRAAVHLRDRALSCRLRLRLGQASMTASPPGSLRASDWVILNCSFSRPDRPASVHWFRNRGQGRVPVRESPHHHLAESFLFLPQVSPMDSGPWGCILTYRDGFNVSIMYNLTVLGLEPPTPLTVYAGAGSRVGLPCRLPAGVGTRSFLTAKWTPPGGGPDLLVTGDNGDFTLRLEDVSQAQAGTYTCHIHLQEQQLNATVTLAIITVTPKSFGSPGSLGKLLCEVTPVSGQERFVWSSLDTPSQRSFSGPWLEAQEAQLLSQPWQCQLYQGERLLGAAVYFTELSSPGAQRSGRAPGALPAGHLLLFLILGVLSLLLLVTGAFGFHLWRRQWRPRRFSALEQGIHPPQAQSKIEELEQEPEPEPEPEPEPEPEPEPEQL
Description: Receptor occupancy on patient T cells (direct binding assay, flow cytometry). Format: in vivo. As to conditions: patients, early time points, FIG. 10C. The source says: The saturation binding aliquot was run in parallel as a control to assess the range of the assay.
Background: A flow cytometer gives signals particle by particle.

Test [1] concerns primary human CD4+ T cells. The test can be described thus: Mixed lymphocyte reaction (MLR) assay, IL-2 secretion. Format: cell-based. As to conditions: 48 hours, antibody alone, FIG. 4. The procedure: This example describes the ability of an exemplary anti-LAG-3 antibody agent to activate primary human T cells in vitro. […] In this MLR assay, primary human CD4+ T cells were mixed with monocyte-derived dendritic cells from a different donor. In these studies, dendritic cells and allogeneic CD4+ T cells were incubated in the presence of an exemplary anti-LAG-3 antibody agent or isotype control for 48 hours, and activation of T cells was determined by measuring the level of interleukin-2 (IL-2) secretion.

Another test has as its system human PBMCs. Description: IL-2 release from SEB-stimulated human PBMCs. Format: cell-based. As to conditions: 100 ng/mL SEB for 3 days, 5 donors, FIG. 5. The procedure:
Specifically human PBMCs (from 5 donors) were stimulated with 100 ng/mL SEB for 3 days and then IL-2 induction was assessed.

Another test has as its system Cyno LAG-3. Description: SPR binding to recombinant soluble cyno LAG-3. Set-up: species or system cynomolgus monkey.
The target in another test is T2, LAG-3/MHC-II binding (Homo sapiens, UniProt P18627).
T2 construct: expressed in transfected cells; host or cells: Jurkat cells (NFAT reporter)
T2 sequence (P18627 23-525): T1 sequence (P18627 23-525)
The test can be described thus: LAG-3 reporter gene assay (LAG-3 Jurkat cells / MHC class II Raji cells, NFAT readout). Format: cell-based. As to conditions: FIG. 3C. The source says: Specifically, this example uses Raji cells, which express high levels of endogenous MHC class II.
A general note: In a reporter assay the amount or activity of a reporter protein is the signal.

For the next test, the target named is T3, Human LAG-3 (Homo sapiens, UniProt P18627).
T3 construct: either recombinant soluble or cell-surface-expressed human and cynomolgus monkey (cyno) LAG-3
T3 sequence (P18627 23-450 limits assumed): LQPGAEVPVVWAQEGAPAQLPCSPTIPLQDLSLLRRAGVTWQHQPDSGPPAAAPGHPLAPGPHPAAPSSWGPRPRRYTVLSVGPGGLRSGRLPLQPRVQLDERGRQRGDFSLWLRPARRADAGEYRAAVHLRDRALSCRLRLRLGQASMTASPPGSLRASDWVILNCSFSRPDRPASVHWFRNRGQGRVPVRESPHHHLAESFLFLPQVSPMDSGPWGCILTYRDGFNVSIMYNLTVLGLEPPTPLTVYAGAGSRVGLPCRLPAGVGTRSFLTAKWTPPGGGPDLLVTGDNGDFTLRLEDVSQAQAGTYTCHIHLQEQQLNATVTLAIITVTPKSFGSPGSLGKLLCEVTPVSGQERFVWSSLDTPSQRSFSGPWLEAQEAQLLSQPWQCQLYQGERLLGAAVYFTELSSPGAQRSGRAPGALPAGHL
The test can be described thus: SPR binding to recombinant soluble human LAG-3. For orientation: SPR reads the build-up and loss of mass on a sensor chip optically.

A further test relates to PARP activity. As to conditions: various cell lines, hydrogen peroxide, cited from earlier work.

The IC50 is the concentration at which inhibition is half-maximal.

As for “TSR-033: anti-LAG-3 antibody agent comprising a heavy chain of SEQ ID NO: 21 and a light chain of SEQ ID NO: 22”, the “receptor occupancy (RO)” value with LAG-3 (80 mg dose) is listed as “approximately 50%”; in the test with LAG-3 (240 mg dose), “approaches saturation”. Also, the IL-2 production result (in test [1]; in the test on human PBMCs) was “dose-dependently increased IL-2 production” each time. Besides, the Kassoc in the test with Cyno LAG-3 is listed as 1.1 × 10^5 (ms)^−1; with Human LAG-3, 1.3 × 10^5 (ms)^−1. Further, the results for the Kdissoc on Cyno LAG-3 and with Human LAG-3 were 0.00026 s⁻¹ and 0.00013 s⁻¹, respectively. In the test with LAG-3/MHC-II binding, the “disruption of binding of LAG-3 on Jurkat cells to MHC Class II expressing Raji cells” value is reported as “potent antagonist”.
`NC(=O)c1cccc2cn(-c3ccc([C@@H]4CCCNC4)cc3)nc12` [Niraparib, (3S)-3-[4-{7-(aminocarbonyl)-2H-indazol-2-yl}phenyl]piperidine]: the IC90 in the test on PARP activity (read-out: inhibitory concentration at 90% of control (IC90)) was ~50 nM. In addition, the 50% inhibitory concentration (IC50) in the test with PARP activity is ~4 nM.

Source of the values: patent US20240158495A1, “Antibody Agents Directed Against Lymphocyte Activation Gene-3 (LAG-3) and Uses Thereof” (Tesaro, Inc., priority 2017, published 2024).
